# In US9012397B2 (priority 2011, dated 2015):
# Read-outs that look alike come from different tables or passages of the source.
# Assays:
# Assay type in all cases: in vivo, human
# Herpes zoster = conditions: person, 50 μg/gr cream
# Description: (§1) The method of the invention has been carried out with respect to a number of skin disorders. The patients were treated with one of two peptides, each at a concentration of 50 μg/gr cream (unless otherwise indicated):
# (§2) The cream was manufactured by Amiga LTD, Israel, and contains the following components:
# 1. A person was diagnosed with Herpes zoster (shingles), which appeared as a painful, circumferential rash in the abdominal area. The patient had been on antibiotics, with no improvement.
# 2. A person was diagnosed with Herpes zoster, which appeared as painful lesions with skin edema on the mid back area, appearing several times a year. […] Decrease in the skin rash and the degree of the sore and swelling and a shortening of the time of recovery (healing).
# radiation burns = conditions: person two after mastectomy, severe radiation burns; 500 μg/gr cream several times per day
# Description: as §1, §2
# 4. A person with breast cancer received radiation treatment. The person suffered from radiation burns in a large skin area with blisters and open wounds. ZEP4 was applied directly to the wounds over a period of 12 days, 1-2 times per day. • Results: an immediate (˜1 minute) ease in the itching and burning sensation.
# 7. person two with breast cancer after mastectomy received radiation treatment. The person suffered from severe radiation burns.
# Herpes simplex = system: Herpes simplex
# Description: as §1, §2
# 5. A person suffered for many years from Herpes simplex on the neck, with no relief from commercial remedies. ZEP3 was applied topically once a day to the lesions. • Results: relief in itching and skin rash within 10-20 min.
# 6. person two was diagnosed with Herpes simplex.
# 7. person one was diagnosed with Herpes simplex.
# 8. person four suffered from Herpes simplex from childhood.
# 9. A person suffered from Herpes simplex lesions on the lips and face. […] 1-2 applications cause the lesions to disappear.
# 10. A person suffered from Herpes simplex on the lips, mainly when under pressure. […] The blisters disappeared after 24 hours.
# 11. A person suffered from Herpes simplex on the lips. ZEP3 (500 μg/gr cream) was topically applied several times during the day on the wound. • Results: the person felt relief after several minutes. The itching and redness lessened immediately and the wound disappeared after 36 hours.
# 12. 7 subjects suffering from Herpes simplex were treated with ZEP3.
# 13. A person suffered from Herpes simplex lesions on the lips.
# 14. A person has a festering Herpes simplex lesion. Generally, 10 days are required for recuperation.
# 15. A person suffered intermittingly from Herpes simplex on the lips, with blisters.
# skin infection = system: skin infection
# Description: as §1, §2
# 1. person two suffered from an infection on the wrist of the left hand, apparently an allergic reaction to a watch band. Large spots appeared around the wrist accompanied by redness.
# 2. person three suffered from an infection on the wrist of the left hand, apparently an allergic reaction to a watch band. Large spots appeared around the wrist accompanied by redness and itching.
# 3. 2 cases of infected skin wounds.
# mosquito bites = system: mosquito bites
# Description: as §1, §2
# 8. males and four females suffered from mosquito bites. […]
# 9. 3 subjects suffering from mosquito bites were treated with ZEP3.
# burns = system: burns
# Description: as §1, §2
# 1. A person was lightly burned on the back of the hand which touched a very hot object. ZEP4 was immediately applied to the burn site. • Results: the burn mark disappeared within 1 hour. No additional treatments were necessary.
# 2. A person was severely burned by boiling water on the palm of the hand. […] At the end of 2 weeks there was no sign of the burn, nor thereafter.
# 3. person two was lightly burned on their finger from boiling oil. […] No further treatments were necessary.
# 5. A person was burnt on their hand from an oven. […] The burn took on a light brown color.
# 6. 4 light burn cases, three from touching a hot surface and one from a chemical substance in a laboratory, were treated with ZEP3.
# 8. person three with irritated skin on the hand due to the rubbing of a watch band. The irritated skin came into contact with a chemical substance (used as a disinfectant). A severe redness developed similar to a burn, and a strong itching feeing. […] D. Oral Cavity
# flea bites = system: flea bites
# Description: as §1, §2
# 1. person two was bitten by fleas on various occasions, resulting in an itching sensation. […] The ointment was reapplied after 6 hours.
# 2. person one who is very sensitive to flea bites was bitten by fleas, resulting in an itching sensation. […] The ointment should be reapplied after 12 hours.
# itching = conditions: person
# Description: as §1, §2
# 1. A person suffered from a strong itching sensation on the skin all over the body for no apparent reason.
# 2. A person suffered from a red rash and itching sensation on their breast. ZEP4 (500 μg/gr cream) was applied twice in a period of 2 hours. • Results: relief from itching within 10 minutes.
# 3. A person suffered from a strong itching sensation in the lower limbs which sometimes spread to the abdomen and back. […] I. Skin Infection
# Varicella = conditions: person, 50 μg/gr cream
# Description: as §1, §2
# 3. A person was diagnosed with severe Varicella, which appeared all over the body. The patient had severe itching and skin peeling. No commercial remedy helped. Initially, ZEP3 was topically applied to the hand, with improvement and relief within 24 hours. […] After 10 days, there was no sign of the disease nor were there any future complications.
# bee stings = conditions: both hands stung, 500 μg/gr cream once to the other hand, about 10 minutes after sting
# Description: as §1, §2
# 3. A person was stung by a bee.
# 4. person four was stung by bees on both hands.
# 5. person three was stung by bees on both hands.
# vaginal herpes = conditions: female over 40, lesions on outer genital area; 50 μg/gr cream daily
# Description: as §1, §2
# 4. A person over 40 suffered from advance vaginal herpes, with numerous lesions on the outer genital area and pronounced itching and swelling.
# [1] = abdominal rash, 2-3 times a day
# [2] = person, lesions on lips and face, 50 μg/gr cream
# [3] = person, lips, 500 μg/gr cream several times a day
# [4] = person, neck, 50 μg/gr cream once a day
# [5] = person three, wrist infection, allergic reaction to watch band, 500 μg/gr cream several times a day
# [6] = entire body twice a day for two weeks
substance,measurement,setting,value
pGLU-ASN-TRP-LYS-C8 [ZEP3],clinical outcome,Herpes zoster; [1],a decrease in the skin redness and the degree of the swelling and itching
same,time to improvement in the rash,Herpes zoster; [1],2 to 10 min
same,clinical outcome,"Herpes zoster; lesions with skin edema on mid back, applied 4-5 times",reduced skin edema and an increase in the intervals between attacks. Decrease in the skin rash and the degree of the sore and swelling and a shortening of the time of recovery (healing)
same,clinical outcome,radiation burns,felt immediate relief
same,clinical outcome,"Herpes simplex; 7 subjects, 50 μg/gr cream",found to be therapeutic
same,clinical outcome as compared to treatment with Zovirax®,"Herpes simplex; person four, 50 μg/gr cream several times","Rapid drying of the lesion, shrinking of swelling and swift conclusion of the outbreak"
same,recuperation period,"Herpes simplex; person, festering lesion, generally 10 days required, 500 μg/gr cream as needed",shortened by half
same,clinical outcome,Herpes simplex; [2],the lesions now appear only infrequently
same,number of applications that cause the lesions to disappear,Herpes simplex; [2],1-2 applications
same,clinical outcome,"Herpes simplex; person, lips with blisters, 500 μg/gr cream as needed",immediate relief; the blisters stopped developing and disappeared after several hours
same,clinical outcome,Herpes simplex; [3],felt relief after several minutes. The itching and redness lessened immediately
same,time until wound disappeared,Herpes simplex; [3],36 h
same,clinical outcome,Herpes simplex; [4],The lesions disappeared and did not return during the last 5 years
same,time to relief in itching and skin rash,Herpes simplex; [4],10 to 20 min
same,clinical outcome,"Herpes simplex; person, pricking sensation on upper lip, 500 μg/gr cream as needed",the pricking sensation ceased and Herpes lesions did not develop
same,clinical outcome,"skin infection; 2 cases of infected skin wounds, 50 μg/gr cream",aided in the healing of the wounds
same,clinical outcome,skin infection; [5],immediate relief from the itching
same,time to decrease in redness,skin infection; [5],≤ 24 h
same,clinical outcome,"mosquito bites; 3 subjects, 50 μg/gr cream",found to be therapeutic both for the itching and for the healing
same,clinical outcome,"mosquito bites; two males and four females, 30-57 years old, (500 μg/gr cream) as needed",an immediate relief from the itching sensation was felt
same,clinical outcome,"burns; 4 light burn cases (three hot surface, one chemical substance), 50 μg/gr cream",found to be therapeutic both for the pain and for the healing
same,clinical outcome,"burns; person three, irritated skin on hand contacted a disinfectant, burn-like redness and itching, ZEP4 and ZEP3 each 500 μg/gr cream",immediate relief from the redness and itching
same,clinical outcome,"flea bites; person one very sensitive to flea bites, 50 μg/gr cream",almost immediate cessation of the itching sensation
same,clinical outcome,"flea bites; person two, 50 μg/gr cream several times to bite location",immediate cessation of the itching sensation
same,clinical outcome,"itching; strong itching all over the body, 500 μg/gr cream a number of times","immediate relief from itching, which ceased"
same,clinical outcome,"itching; strong itching in lower limbs, 500 μg/gr cream as needed",immediate relief
same,clinical outcome,Varicella; [6],shortening the time of recovery (healing)
same,time to decrease in the skin rash and the degree of the sore and swelling,Varicella; [6],10 to 20 min
same,time until no sign of the disease,Varicella; [6],10 days
same,time to improvement and relief,Varicella; initial application to the hand,≤ 24 h
same,clinical outcome,bee stings; person four,the swelling shrunk and the redness decreased to an identical degree on each hand
same,clinical outcome,bee stings; person three,the swelling shrunk and the redness decreased to an identical degree on each hand
same,clinical outcome,vaginal herpes,"the redness and swelling decreased, and the lesions healed"
